Results as given in patent US20090297438A1, “Human Monoclonal Antibodies to Prostate Specific Membrane Antigen (PSMA)” (priority 2005, published 2009).

Tested on: LNCaP human prostate carcinoma xenografts
Assay: LNCaP tumor xenografts treated with Taxotere and 7F12 antibody
Type: in vivo, male CB17.SCID mice
Settings: Taxotere alone, 2 and 4 mg/kg iv
Method: The anti-tumor efficacy of the anti-PSMA 7F12 antibody in combination with Taxotere® (docetaxel) was tested on LNCaP human prostate carcinoma xenografts grown in male CB17.SCID mice.
LNCaP prostate cancer cells expressing high levels of PSMA were obtained from ATCC (Cat# CRL-1740) and expanded in vitro following ATCC instruction. 8 week-old male CB17.SCID mice from Taconic were implanted subcutaneously in the right flank with 2.5×10^6 LNCaP cells in 0.2 ml of PBS/Matrigel (1:1) per mouse. Mice were weighed and measured for tumor volume using an electronic caliper twice weekly starting three weeks post implantation. Tumor volumes were calculated as height×width×length. Mice with vascularized tumors (determined by the appearance of the tumors) of 180 mm^3 were randomized into treatment group and were dosed per individual body weight on Day 0. Mice were monitored for tumor growth around 60 days post dosing and terminated at the end of the study. Mice were euthanized when the tumors reached tumor end point (1500 mm^3). Taxotere® was dosed at Q3Dx3 intravenously (iv) through the tail vein. Isotype control antibody Rituxan® and the anti-PSMA 7F12 antibody were dosed intraperitoneally (ip) Q3Dx5, followed with Q7Dx6.

CC(=O)O[C@@]12CO[C@@H]1C[C@H](O)[C@@]1(C)C(=O)[C@H](O)C3=C(C)[C@@H](OC(=O)[C@H](O)[C@@H](NC(=O)OC(C)(C)C)c4ccccc4)C[C@@](O)([C@@H](OC(=O)c4ccccc4)[C@H]21)C3(C)C [Taxotere®, docetaxel]
anti-tumor growth efficacy: dose-dependent anti-tumor growth efficacy
